The target in assay [1] is T1, EP2 (Homo sapiens, UniProt P43116). Nature of the assay: EP2 cAMP functional assay. The format is cell-based. Conditions: NA = Not Active. The text has this:
(§1) U.S. patent application publication No. 20070129552, published on Jun. 7, 2007, incorporated by reference herein, describes the methods used to obtain the in vitro data in Table 1 below.

The target in assay [2] is EP4 (Homo sapiens, UniProt P35408). As to the kind of experiment: EP4 binding (KI). Conditions: NA = Not Active; read-out: EP4 data (EC50 in nM) KI.
EP4, sequence (P35408 whole entry): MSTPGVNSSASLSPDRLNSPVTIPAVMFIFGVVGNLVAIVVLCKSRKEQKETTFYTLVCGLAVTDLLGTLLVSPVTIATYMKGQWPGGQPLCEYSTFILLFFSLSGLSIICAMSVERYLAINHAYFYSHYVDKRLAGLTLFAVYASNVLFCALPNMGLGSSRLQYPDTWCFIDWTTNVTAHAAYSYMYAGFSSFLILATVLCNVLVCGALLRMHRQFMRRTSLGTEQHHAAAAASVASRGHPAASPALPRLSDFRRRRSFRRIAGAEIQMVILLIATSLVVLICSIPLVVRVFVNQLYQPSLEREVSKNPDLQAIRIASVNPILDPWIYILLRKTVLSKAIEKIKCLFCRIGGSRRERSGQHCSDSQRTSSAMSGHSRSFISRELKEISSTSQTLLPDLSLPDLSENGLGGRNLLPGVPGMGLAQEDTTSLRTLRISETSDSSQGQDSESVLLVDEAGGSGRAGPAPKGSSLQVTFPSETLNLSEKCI
From the text: as §1

In assay [3] the target is T1, EP2. As to the kind of experiment: EP2 binding (Ki). Conditions: NA = Not Active; read-out: EP2 Data (EC50 in nM) Ki.
From the text: as §1

Data on seven compounds can be found in patent US9388153B2, “Secondary amines as therapeutic agents” (Allergan, Inc., priority 2013, dated 2016).

The term EC50 denotes the concentration that produces a half-maximal response. A higher EC50 goes with a less potent agent. Usually Ki stands for the dissociation constant of the complex between target and ligand, obtained from inhibition or displacement.

T1 sequence (P43116 whole entry): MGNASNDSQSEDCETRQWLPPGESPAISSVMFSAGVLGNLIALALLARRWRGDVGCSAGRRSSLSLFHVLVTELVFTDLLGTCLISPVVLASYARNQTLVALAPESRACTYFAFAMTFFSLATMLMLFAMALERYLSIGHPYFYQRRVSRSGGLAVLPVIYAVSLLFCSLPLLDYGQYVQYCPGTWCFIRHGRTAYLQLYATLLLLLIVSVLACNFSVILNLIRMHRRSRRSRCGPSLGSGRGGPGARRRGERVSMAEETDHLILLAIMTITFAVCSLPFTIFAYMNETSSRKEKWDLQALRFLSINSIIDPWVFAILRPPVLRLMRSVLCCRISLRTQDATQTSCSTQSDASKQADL

`O=C(O)COc1cccc(NC2CCc3ccc(-c4cccc(F)c4)cc32)c1` (stereo not drawn) [Example 1, 2-(3-((6-(3-Fluorophenyl)-2,3-dihydro-1H-inden-1-yl)amino)phenoxy)acetic acid] yielded an EC50 in assay [1] of 11 nM. Further, the Ki worked out at 3050 nM in assay [2] and 80 nM in assay [3].

In assay [1], `CN(c1cccc(OCC(=O)O)c1)C1CCc2ccc(-c3cccc(F)c3)cc21` (stereo not drawn) [Example 3, 2-(3-((6-(3-Fluorophenyl)-2,3-dihydro-1H-inden-1-yl)(methyl)amino)phenoxy)acetic acid] returned an EC50 of 697 nM. In addition, the inhibition constant Ki in assay [2] is 7320 nM; in assay [3] it was 1810 nM.

In assay [1], `CCN(c1cccc(OCC(=O)O)c1)C1CCc2ccc(-c3cccc(F)c3)cc21` (stereo not drawn) [Example 4, 2-(3-(Ethyl(6-(3-fluorophenyl)-2,3-dihydro-1H-inden-1-yl)amino)phenoxy)acetic acid] had an EC50 of 8300 nM. The Ki in assay [2] came to 6640 nM; in assay [3] it was 3940 nM.

In assay [1], `O=C(O)COc1cccc(OC2CCc3ccc(-c4cccc(F)c4)cc32)c1` (stereo not drawn) [Example 5, 2-(3-((6-(3-Fluorophenyl)-2,3-dihydro-1H-inden-1-yl)oxy)phenoxy)acetic acid] yielded an EC50 of 747 nM. Also, the Ki in assay [3] is 144 nM.

`O=C(O)COc1cccc(NC2CCCc3ccc(-c4cccc(F)c4)cc32)c1` (stereo not drawn) [Example 6, 2-(3-((7-(3-Fluorophenyl)-1,2,3,4-tetrahydronaphthalen-1-yl)amino)phenoxy)acetic acid] showed a half-maximal effective concentration (EC50) in assay [1] of 438 nM. For the same compound, the Ki in assay [2] was 3630 nM; in assay [3], 104 nM.

As for `OCCOc1cccc(NC2CCCc3ccc(-c4cccc(F)c4)cc32)c1` (stereo not drawn) [Example 7, 2-(3-((7-(3-Fluorophenyl)-1,2,3,4-tetrahydronaphthalen-1-yl)amino)phenoxy)ethanol], the Ki in assay [2] worked out at 6280 nM.

`O=C(O)COc1cccc(NC2COc3ccc(-c4cccc(F)c4)cc32)c1` (stereo not drawn) [Example 8, 2-(3-((5-(3-Fluorophenyl)-2,3-dihydrobenzofuran-3-yl)amino)phenoxy)acetic acid]: the response in assay [1] was half-maximal at 0.6 nM (EC50). Further, the Ki is 7990 nM in assay [2] and 13 nM in assay [3].
